From patent publication US10844077B2, “Thiazolyl-containing compounds for treating proliferative diseases” (Dana-Farber Cancer Institute, Inc., priority 2014, dated 2020)

Columns and labels:
Type in all cases: binding
broad panel of kinases [1] = target: broad panel of kinases (Homo sapiens, UniProt O75385); conditions: ULK1; 1 μM
broad panel of kinases [2] = target: broad panel of kinases (Homo sapiens, UniProt Q02779); conditions: MLK2; 1 μM
broad panel of kinases [3] = target: broad panel of kinases (Homo sapiens, UniProt Q13237); conditions: PRKG2; 1 μM
broad panel of kinases [4] = target: broad panel of kinases (Homo sapiens, UniProt P42336, E545K); conditions: PIK3CA(E545K); 1 μM
broad panel of kinases [5] = target: broad panel of kinases (Homo sapiens, UniProt Q13705); conditions: ACVR2B; 1 μM
broad panel of kinases [6] = target: broad panel of kinases (Homo sapiens, UniProt Q9BVS4); conditions: RIOK2; 1 μM
broad panel of kinases [7] = target: broad panel of kinases (Homo sapiens, UniProt Q86YV6); conditions: MYLK4; 1 μM
broad panel of kinases [8] = target: broad panel of kinases (Homo sapiens, UniProt P15056); conditions: BRAF; 1 μM
broad panel of kinases [9] = target: broad panel of kinases (Homo sapiens, UniProt P42336, E542K); conditions: PIK3CA(E542K); 1 μM
broad panel of kinases [10] = target: broad panel of kinases (Homo sapiens, UniProt P45985); conditions: MEK4; 1 μM
broad panel of kinases [11] = target: broad panel of kinases (Homo sapiens, UniProt Q14680); conditions: MELK; 1 μM
broad panel of kinases [12] = target: broad panel of kinases (Homo sapiens, UniProt Q9C098); conditions: DCAMKL3; 1 μM
broad panel of kinases [13] = target: broad panel of kinases (Homo sapiens, UniProt P07947); conditions: YES; 1 μM
broad panel of kinases [14] = target: broad panel of kinases (Homo sapiens, UniProt Q9Y5S2); conditions: MRCKB; 1 μM
broad panel of kinases [15] = target: broad panel of kinases (Homo sapiens, UniProt Q8N568); conditions: DCAMKL2; 1 μM
broad panel of kinases [16] = target: broad panel of kinases (Homo sapiens, UniProt Q32MK0); conditions: MLCK; 1 μM
broad panel of kinases [17] = target: broad panel of kinases (Homo sapiens, UniProt Q9Y2H1); conditions: NDR2; 1 μM
broad panel of kinases [18] = target: broad panel of kinases (Homo sapiens, UniProt Q8TD08); conditions: ERK8; 1 μM
broad panel of kinases [19] = target: broad panel of kinases (Homo sapiens, UniProt P42681); conditions: TXK; 1 μM
broad panel of kinases [20] = target: broad panel of kinases (Homo sapiens, UniProt Q9NRM7); conditions: LATS2; 1 μM
broad panel of kinases [21] = target: broad panel of kinases (Homo sapiens, UniProt Q96NX5); conditions: CAMK1G; 1 μM
broad panel of kinases [22] = target: broad panel of kinases (Homo sapiens, UniProt P36888, N841I); conditions: FLT3(N841I); 1 μM
broad panel of kinases [23] = target: broad panel of kinases (Homo sapiens, UniProt Q8NG66); conditions: NEK11; 1 μM
broad panel of kinases [24] = target: broad panel of kinases (Homo sapiens, UniProt Q6P3R8); conditions: NEK5; 1 μM
broad panel of kinases [25] = target: broad panel of kinases (Homo sapiens, UniProt P15735); conditions: PHKG2; 1 μM
broad panel of kinases [26] = target: broad panel of kinases (Homo sapiens, UniProt Q9UKI8); conditions: TLK1; 1 μM
broad panel of kinases [27] = target: broad panel of kinases (Homo sapiens, UniProt Q99755); conditions: PIP5K1A; 1 μM
broad panel of kinases [28] = target: broad panel of kinases (Homo sapiens, UniProt P42345); conditions: MTOR; 1 μM
broad panel of kinases [29] = target: broad panel of kinases (Homo sapiens, UniProt O96017); conditions: CHEK2; 1 μM
broad panel of kinases [30] = target: broad panel of kinases (Homo sapiens, UniProt Q9NYL2); conditions: ZAK; 1 μM
broad panel of kinases [31] = target: broad panel of kinases (Homo sapiens, UniProt P31749); conditions: AKT1; 1 μM
broad panel of kinases [32] = target: broad panel of kinases (Homo sapiens, UniProt P36894); conditions: BMPR1A; 1 μM
broad panel of kinases [33] = target: broad panel of kinases (Plasmodium falciparum, UniProt P62344)
broad panel of kinases [34] = target: broad panel of kinases (Homo sapiens, UniProt P36888, K663Q); conditions: FLT3(K663Q); 1 μM
broad panel of kinases [35] = target: broad panel of kinases (Homo sapiens, UniProt Q15746); conditions: MYLK; 1 μM
broad panel of kinases [36] = target: broad panel of kinases (Homo sapiens, UniProt P42336, M1043I); conditions: PIK3CA(M1043I); 1 μM
broad panel of kinases [37] = target: broad panel of kinases (Homo sapiens, UniProt Q9UM73, L1196M); conditions: ALK(L1196M); 1 μM
Sequence of broad panel of kinases (Homo sapiens, UniProt Q9UM73, L1196M) (Q9UM73 19-1620 L1196M limits assumed): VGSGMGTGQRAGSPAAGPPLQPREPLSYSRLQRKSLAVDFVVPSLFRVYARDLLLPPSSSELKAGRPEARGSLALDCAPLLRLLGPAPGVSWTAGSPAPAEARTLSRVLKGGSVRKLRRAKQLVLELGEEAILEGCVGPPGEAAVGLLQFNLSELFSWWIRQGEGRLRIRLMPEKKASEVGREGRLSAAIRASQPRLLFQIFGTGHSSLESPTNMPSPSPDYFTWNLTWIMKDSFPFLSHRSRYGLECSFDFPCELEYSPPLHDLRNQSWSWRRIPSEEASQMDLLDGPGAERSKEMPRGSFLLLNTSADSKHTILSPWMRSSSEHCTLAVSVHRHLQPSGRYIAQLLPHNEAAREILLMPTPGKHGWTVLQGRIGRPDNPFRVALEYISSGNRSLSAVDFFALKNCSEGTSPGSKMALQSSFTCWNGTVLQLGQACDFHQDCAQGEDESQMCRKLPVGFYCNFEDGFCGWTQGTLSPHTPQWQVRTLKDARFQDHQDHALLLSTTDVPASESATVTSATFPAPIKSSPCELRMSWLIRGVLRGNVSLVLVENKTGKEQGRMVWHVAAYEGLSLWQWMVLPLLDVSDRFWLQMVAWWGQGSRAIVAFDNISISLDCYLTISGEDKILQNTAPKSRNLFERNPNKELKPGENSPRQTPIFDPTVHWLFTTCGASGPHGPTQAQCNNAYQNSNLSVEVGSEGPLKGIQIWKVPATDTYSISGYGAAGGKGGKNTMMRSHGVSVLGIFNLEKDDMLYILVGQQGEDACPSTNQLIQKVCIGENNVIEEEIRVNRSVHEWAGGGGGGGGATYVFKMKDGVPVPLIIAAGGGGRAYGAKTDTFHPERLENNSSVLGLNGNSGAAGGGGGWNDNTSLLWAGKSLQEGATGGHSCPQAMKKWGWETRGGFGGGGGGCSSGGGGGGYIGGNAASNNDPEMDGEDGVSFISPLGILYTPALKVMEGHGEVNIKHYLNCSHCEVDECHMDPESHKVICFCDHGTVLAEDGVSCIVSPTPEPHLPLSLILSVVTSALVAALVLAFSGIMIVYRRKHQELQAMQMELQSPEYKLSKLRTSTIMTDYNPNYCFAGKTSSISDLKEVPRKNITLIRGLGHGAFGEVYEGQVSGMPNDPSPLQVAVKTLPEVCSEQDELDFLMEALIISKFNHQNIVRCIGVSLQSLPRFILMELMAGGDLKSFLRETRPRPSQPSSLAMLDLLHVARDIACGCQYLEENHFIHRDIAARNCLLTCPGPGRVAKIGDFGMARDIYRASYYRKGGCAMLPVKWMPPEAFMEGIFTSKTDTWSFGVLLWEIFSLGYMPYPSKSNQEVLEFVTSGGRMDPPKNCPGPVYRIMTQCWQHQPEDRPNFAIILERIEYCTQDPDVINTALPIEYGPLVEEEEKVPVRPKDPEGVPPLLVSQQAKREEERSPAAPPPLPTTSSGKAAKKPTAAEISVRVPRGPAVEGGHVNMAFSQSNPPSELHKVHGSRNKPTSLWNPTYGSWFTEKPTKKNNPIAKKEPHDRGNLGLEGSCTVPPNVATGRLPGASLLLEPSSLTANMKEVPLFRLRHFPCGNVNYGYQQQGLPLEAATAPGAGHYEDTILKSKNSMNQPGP

Sequence of broad panel of kinases (Homo sapiens, UniProt P07947) (P07947 2-543 limits assumed): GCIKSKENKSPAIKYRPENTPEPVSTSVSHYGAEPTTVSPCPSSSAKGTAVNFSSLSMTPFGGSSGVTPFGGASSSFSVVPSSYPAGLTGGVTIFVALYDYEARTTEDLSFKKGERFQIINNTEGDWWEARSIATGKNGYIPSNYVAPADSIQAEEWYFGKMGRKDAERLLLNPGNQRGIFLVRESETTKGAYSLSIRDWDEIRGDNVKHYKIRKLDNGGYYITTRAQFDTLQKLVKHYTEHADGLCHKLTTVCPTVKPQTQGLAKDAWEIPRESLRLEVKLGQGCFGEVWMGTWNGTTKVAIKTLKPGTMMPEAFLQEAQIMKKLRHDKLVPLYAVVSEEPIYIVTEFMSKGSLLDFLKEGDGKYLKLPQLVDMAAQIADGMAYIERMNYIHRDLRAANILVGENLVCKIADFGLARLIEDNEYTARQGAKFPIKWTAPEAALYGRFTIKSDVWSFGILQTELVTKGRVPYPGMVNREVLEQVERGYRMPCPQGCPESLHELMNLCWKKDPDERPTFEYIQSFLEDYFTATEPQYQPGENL
Sequence of broad panel of kinases (Homo sapiens, UniProt Q9Y2H1) (Q9Y2H1 2-464 limits assumed): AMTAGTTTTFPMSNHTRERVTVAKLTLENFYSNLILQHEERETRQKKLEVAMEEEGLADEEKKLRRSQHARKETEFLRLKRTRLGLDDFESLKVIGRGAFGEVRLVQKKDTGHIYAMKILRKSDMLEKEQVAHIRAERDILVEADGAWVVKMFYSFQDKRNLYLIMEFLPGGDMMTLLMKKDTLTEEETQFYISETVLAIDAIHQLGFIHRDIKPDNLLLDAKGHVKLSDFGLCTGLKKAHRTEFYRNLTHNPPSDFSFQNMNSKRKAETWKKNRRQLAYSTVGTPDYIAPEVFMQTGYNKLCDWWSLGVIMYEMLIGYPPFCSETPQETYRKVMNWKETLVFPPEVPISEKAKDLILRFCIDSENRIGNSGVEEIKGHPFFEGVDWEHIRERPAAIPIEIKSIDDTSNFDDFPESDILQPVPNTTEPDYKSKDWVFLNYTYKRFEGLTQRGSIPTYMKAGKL
Sequence of broad panel of kinases (Plasmodium falciparum, UniProt P62344) (P62344 2-524 limits assumed): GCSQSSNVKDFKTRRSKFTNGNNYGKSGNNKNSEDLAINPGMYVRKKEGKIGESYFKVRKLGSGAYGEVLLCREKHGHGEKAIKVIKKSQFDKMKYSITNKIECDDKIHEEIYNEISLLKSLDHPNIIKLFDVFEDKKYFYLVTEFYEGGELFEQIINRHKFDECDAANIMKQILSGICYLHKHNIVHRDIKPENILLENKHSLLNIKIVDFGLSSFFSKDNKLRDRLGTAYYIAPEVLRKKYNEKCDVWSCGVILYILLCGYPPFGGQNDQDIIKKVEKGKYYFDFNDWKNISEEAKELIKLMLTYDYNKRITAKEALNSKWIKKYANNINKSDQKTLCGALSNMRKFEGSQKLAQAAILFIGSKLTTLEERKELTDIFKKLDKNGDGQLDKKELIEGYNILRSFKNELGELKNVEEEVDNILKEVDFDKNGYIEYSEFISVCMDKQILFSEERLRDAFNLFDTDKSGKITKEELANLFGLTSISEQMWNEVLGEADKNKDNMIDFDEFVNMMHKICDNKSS
Sequence of broad panel of kinases (Homo sapiens, UniProt Q13237) (Q13237 2-762 limits assumed): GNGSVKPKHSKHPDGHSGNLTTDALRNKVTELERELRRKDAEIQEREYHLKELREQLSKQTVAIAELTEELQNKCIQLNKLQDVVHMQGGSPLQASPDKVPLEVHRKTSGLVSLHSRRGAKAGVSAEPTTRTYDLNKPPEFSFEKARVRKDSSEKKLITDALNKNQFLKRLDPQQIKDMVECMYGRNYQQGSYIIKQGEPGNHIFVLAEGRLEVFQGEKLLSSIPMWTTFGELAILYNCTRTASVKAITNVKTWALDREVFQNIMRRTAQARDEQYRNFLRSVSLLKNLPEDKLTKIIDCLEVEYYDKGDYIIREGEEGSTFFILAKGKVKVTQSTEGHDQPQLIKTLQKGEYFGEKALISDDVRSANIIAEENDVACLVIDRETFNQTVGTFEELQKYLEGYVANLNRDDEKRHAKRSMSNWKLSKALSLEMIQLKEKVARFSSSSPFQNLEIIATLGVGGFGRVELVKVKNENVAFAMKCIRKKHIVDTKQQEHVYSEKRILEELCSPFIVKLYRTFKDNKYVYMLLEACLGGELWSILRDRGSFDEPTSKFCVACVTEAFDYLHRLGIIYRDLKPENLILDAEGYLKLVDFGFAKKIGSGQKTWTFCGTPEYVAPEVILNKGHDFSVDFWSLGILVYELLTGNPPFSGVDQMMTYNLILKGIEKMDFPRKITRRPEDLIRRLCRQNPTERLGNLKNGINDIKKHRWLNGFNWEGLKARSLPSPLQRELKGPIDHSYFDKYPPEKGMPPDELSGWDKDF
Sequence of broad panel of kinases (Homo sapiens, UniProt P36894) (P36894 24-532 limits assumed): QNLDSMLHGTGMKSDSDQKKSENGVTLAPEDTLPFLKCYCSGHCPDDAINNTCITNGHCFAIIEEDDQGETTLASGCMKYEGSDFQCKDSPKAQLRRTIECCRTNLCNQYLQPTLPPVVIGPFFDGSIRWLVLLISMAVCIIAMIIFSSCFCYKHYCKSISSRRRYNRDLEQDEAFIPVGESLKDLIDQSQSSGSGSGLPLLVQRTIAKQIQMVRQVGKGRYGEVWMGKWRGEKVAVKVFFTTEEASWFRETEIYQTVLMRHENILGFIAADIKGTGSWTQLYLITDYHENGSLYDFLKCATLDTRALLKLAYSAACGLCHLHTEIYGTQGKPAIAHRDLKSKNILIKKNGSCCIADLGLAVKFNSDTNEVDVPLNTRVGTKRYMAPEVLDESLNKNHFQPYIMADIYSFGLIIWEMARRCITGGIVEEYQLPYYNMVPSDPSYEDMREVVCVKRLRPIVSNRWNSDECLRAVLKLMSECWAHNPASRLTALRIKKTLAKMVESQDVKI
Sequence of broad panel of kinases (Homo sapiens, UniProt P45985) (P45985 2-399 limits assumed): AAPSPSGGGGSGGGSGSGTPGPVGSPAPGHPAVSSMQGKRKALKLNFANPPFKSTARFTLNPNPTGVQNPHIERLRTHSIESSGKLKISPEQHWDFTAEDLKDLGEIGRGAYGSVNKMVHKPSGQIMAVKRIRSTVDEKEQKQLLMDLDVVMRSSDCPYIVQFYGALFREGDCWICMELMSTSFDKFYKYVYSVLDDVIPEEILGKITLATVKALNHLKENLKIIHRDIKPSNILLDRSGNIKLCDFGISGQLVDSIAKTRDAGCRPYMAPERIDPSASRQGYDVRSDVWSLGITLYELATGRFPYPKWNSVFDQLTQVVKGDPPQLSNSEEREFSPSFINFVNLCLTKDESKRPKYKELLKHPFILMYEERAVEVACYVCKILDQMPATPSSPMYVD

| Structure (SMILES) | percent of control binding remaining (lower = stronger binding) (broad panel of kinases [1]) [%] | percent of control binding remaining (lower = stronger binding) (broad panel of kinases [2]) [%] | percent of control binding remaining (lower = stronger binding) (broad panel of kinases [3]) [%] | percent of control binding remaining (lower = stronger binding) (broad panel of kinases [4]) [%] | percent of control binding remaining (lower = stronger binding) (broad panel of kinases [5]) [%] | percent of control binding remaining (lower = stronger binding) (broad panel of kinases [6]) [%] | percent of control binding remaining (lower = stronger binding) (broad panel of kinases [7]) [%] | percent of control binding remaining (lower = stronger binding) (broad panel of kinases [8]) [%] | percent of control binding remaining (lower = stronger binding) (broad panel of kinases [9]) [%] | percent of control binding remaining (lower = stronger binding) (broad panel of kinases [10]) [%] | percent of control binding remaining (lower = stronger binding) (broad panel of kinases [11]) [%] | percent of control binding remaining (lower = stronger binding) (broad panel of kinases [12]) [%] | percent of control binding remaining (lower = stronger binding) (broad panel of kinases [13]) [%] | percent of control binding remaining (lower = stronger binding) (broad panel of kinases [14]) [%] | percent of control binding remaining (lower = stronger binding) (broad panel of kinases [15]) [%] | percent of control binding remaining (lower = stronger binding) (broad panel of kinases [16]) [%] | percent of control binding remaining (lower = stronger binding) (broad panel of kinases [17]) [%] | percent of control binding remaining (lower = stronger binding) (broad panel of kinases [18]) [%] | percent of control binding remaining (lower = stronger binding) (broad panel of kinases [19]) [%] | percent of control binding remaining (lower = stronger binding) (broad panel of kinases [20]) [%] | also measured |
| --- | --- | --- | --- | --- | --- | --- | --- | --- | --- | --- | --- | --- | --- | --- | --- | --- | --- | --- | --- | --- | --- |
| C=CC(=O)N1CC[C@H](Nc2nc(CN3CCOCC3)cc(Nc3ncc(C(=O)Nc4c(C)cccc4C)s3)n2)C1 [Example I-2] | 79 | 100 | 99 | 94 | 78 | 92 | 98 | 4.4 | 92 | 100 | 84 | 97 | 0 | 89 | 98 | 100 | 96 | 97 | 0.6 | 100 | percent of control binding remaining (lower = stronger binding) (broad panel of kinases [21]): 89%; percent of control binding remaining (lower = stronger binding) (broad panel of kinases [22]): 100%; percent of control binding remaining (lower = stronger binding) (broad panel of kinases [23]): 83%; percent of control binding remaining (lower = stronger binding) (broad panel of kinases [24]): 96%; percent of control binding remaining (lower = stronger binding) (broad panel of kinases [25]): 96%; percent of control binding remaining (lower = stronger binding) (broad panel of kinases [26]): 100%; percent of control binding remaining (lower = stronger binding) (broad panel of kinases [27]): 92%; percent of control binding remaining (lower = stronger binding) (broad panel of kinases [28]): 100%; percent of control binding remaining (lower = stronger binding) (broad panel of kinases [29]): 97%; percent of control binding remaining (lower = stronger binding) (broad panel of kinases [30]): 87%; percent of control binding remaining (lower = stronger binding) (broad panel of kinases [31]): 95%; percent of control binding remaining (lower = stronger binding) (broad panel of kinases [32]): 100%; % change compared to control (broad panel of kinases [33]): 24%; percent of control binding remaining (lower = stronger binding) (broad panel of kinases [34]): 96%; percent of control binding remaining (lower = stronger binding) (broad panel of kinases [35]): 85%; percent of control binding remaining (lower = stronger binding) (broad panel of kinases [36]): 96%; percent of control binding remaining (lower = stronger binding) (broad panel of kinases [37]): 72% |
| C=CC(=O)N1CC[C@H](Nc2nccc(Nc3ncc(C(=O)Nc4c(C)cccc4C)s3)n2)C1 [Example I-3] | 86 | 95 | 91 | 100 | 95 | 77 | 100 | 6.8 | 100 | 100 | 82 | 92 | 0 | 100 | 93 | 100 | 58 | 99 | 0.7 | 92 | percent of control binding remaining (lower = stronger binding) (broad panel of kinases [21]): 97%; percent of control binding remaining (lower = stronger binding) (broad panel of kinases [22]): 100%; percent of control binding remaining (lower = stronger binding) (broad panel of kinases [23]): 49%; percent of control binding remaining (lower = stronger binding) (broad panel of kinases [24]): 87%; percent of control binding remaining (lower = stronger binding) (broad panel of kinases [25]): 94%; percent of control binding remaining (lower = stronger binding) (broad panel of kinases [26]): 100%; percent of control binding remaining (lower = stronger binding) (broad panel of kinases [27]): 91%; percent of control binding remaining (lower = stronger binding) (broad panel of kinases [28]): 100%; percent of control binding remaining (lower = stronger binding) (broad panel of kinases [29]): 97%; percent of control binding remaining (lower = stronger binding) (broad panel of kinases [30]): 94%; percent of control binding remaining (lower = stronger binding) (broad panel of kinases [31]): 95%; percent of control binding remaining (lower = stronger binding) (broad panel of kinases [32]): 92%; % change compared to control (broad panel of kinases [33]): 8.1%; percent of control binding remaining (lower = stronger binding) (broad panel of kinases [34]): 100%; percent of control binding remaining (lower = stronger binding) (broad panel of kinases [35]): 93%; percent of control binding remaining (lower = stronger binding) (broad panel of kinases [36]): 100%; percent of control binding remaining (lower = stronger binding) (broad panel of kinases [37]): 76% |
